# Reference: PMC2677626, “How β-Lactam Antibiotics Enter Bacteria: A Dialogue with the Porins” (PLoS ONE, 2009)
# Molecular target: T1, OmpC (Escherichia coli, UniProt P06996)
# T1 construct: OmpC porin in planar lipid bilayer
# Experiment: single-channel ion current blockage in planar lipid bilayer
# Assay type: binding
# Settings: data not shown in paper; same pattern as Omp36
# T1 sequence (P06996 22-367): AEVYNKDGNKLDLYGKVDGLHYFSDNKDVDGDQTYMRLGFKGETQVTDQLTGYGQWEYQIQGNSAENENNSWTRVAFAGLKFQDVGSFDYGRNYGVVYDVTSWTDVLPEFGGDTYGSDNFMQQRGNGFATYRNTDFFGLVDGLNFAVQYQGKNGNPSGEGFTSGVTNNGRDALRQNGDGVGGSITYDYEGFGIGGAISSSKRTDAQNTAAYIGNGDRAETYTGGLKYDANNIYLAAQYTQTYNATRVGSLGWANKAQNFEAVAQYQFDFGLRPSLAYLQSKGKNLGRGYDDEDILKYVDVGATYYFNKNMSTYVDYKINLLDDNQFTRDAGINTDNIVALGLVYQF
row,Structure (SMILES),single-channel ion current blockage in planar lipid bilayer
1,C[C@@H](O)[C@H]1C(=O)N2C(C(=O)O)=C(S[C@@H]3CN[C@H](C(=O)Nc4cccc(C(=O)O)c4)C3)[C@H](C)[C@H]12 [ertapenem],"showed the same pattern of interaction with ertapenem, cefepime, ceftazidime and ampicillin (data not shown)"
2,CO/N=C(\C(=O)N[C@@H]1C(=O)N2C(C(=O)[O-])=C(C[N+]3(C)CCCC3)CS[C@H]12)c1csc(N)n1 [cefepime],"showed the same pattern of interaction with ertapenem, cefepime, ceftazidime and ampicillin (data not shown)"
